Measured values: US20240279212A1, “NOVEL INTERMEDIATE FOR PREPARATION OF PYROXASULFONE” (UPL LIMITED, priority 2021, published 2024)

Tests used:
[1] = Particle size distribution of Pyroxasulfone prepared in Example 8; assay type: physicochemical; settings: product of Example 8 (H2O2/sodium tungstate oxidation, isopropyl alcohol/water treatment)
[2] = Bulk density of Pyroxasulfone prepared in Example 8; assay type: physicochemical; settings: product of Example 8 (H2O2/sodium tungstate oxidation, isopropyl alcohol/water treatment)

Cn1nc(C(F)(F)F)c(CS(=O)(=O)C2=NOC(C)(C)C2)c1OC(F)F [Pyroxasulfone, 3-[5-(difluoromethoxy)-1-methyl-3-(trifluoromethyl)pyrazol-4-ylmethylsulfonyl]-4,5-dihydro-5,5-dimethyl-1,2-oxazole]
Particle Size Distribution: D50 [1]: 113.30 μm | Bulk density [2]: 0.54 to 0.57 g/mL
